Paper PMC11280325, “Design, Synthesis, and Characterization of Novel Thiazolidine-2,4-Dione-Acridine Hybrids as Antitumor Agents” (Molecules, 2024)
Read-outs that look alike come from different tables or passages of the source.

Experiments:
[1] = biological target: T1, bovine serum albumin (BSA) (Bos taurus, UniProt P02769); test: BSA fluorescence quenching (Stern–Volmer); assay type: binding; details: for Stern–Volmer quenching constant Ksv: BSA 1 μM, excitation 280 nm, PBS pH 7.4, 24 °C; for bimolecular quenching rate constant kq: kq = Ksv/τ0, τ0 = 10^−8 s, BSA, pH 7.4, 24 °C
T1 construct: purchased Sigma-Aldrich
T1 sequence (P02769 25-607): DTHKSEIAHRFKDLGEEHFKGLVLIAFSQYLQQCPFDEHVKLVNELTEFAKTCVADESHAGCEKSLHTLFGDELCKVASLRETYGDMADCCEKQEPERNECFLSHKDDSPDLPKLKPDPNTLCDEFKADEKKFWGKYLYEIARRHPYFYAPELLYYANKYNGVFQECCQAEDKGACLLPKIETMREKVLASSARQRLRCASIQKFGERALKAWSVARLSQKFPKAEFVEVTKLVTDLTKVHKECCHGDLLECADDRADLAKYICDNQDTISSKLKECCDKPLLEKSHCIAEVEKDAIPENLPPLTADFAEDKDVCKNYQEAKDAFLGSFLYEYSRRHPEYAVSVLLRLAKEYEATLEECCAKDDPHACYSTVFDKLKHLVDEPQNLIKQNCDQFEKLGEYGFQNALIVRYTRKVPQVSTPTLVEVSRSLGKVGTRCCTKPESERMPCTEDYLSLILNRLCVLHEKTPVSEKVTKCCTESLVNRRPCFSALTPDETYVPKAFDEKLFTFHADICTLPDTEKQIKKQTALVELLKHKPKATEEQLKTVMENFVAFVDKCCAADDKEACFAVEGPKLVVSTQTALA
Source text: BSA contains 582 amino acid residues, including tyrosine (Tyr), phenylalanine (Phe), and tryptophan (Trp). The tryptophan residues located at positions 134 and 212 being predominantly responsible for its intrinsic fluorescence due to their higher quantum yield than the other amino acids. When excitation occurs at 280 nm, both Trp and Tyr contribute to the fluorescence of the protein [44]. In this study, we investigated the interaction of newly synthesized derivatives (7e·2HCl, 12d·2HCl, 13c·HCl, and 13d), which have promising anticancer properties, with BSA. BSA (1 μM) was titrated with increasing concentration of acridine derivatives, and fluorescence spectra were recorded in the range of 300–500 nm (Figure 10). The fluorescence quenching for the quencher (Q) and protein interaction was analyzed using the Stern–Volmer equation [45, 46]: F0/F=1+Ksv [Q]=1+Kq τ0[Q] where F0 and F denote the fluorescence intensities in the absence and presence of the quencher Q, respectively. Ksv is the Stern–Volmer constant, kq is the bimolecular quenching rate constant (kq = Ksv/τ0), and τ0 is the lifetime of BSA in the absence of quencher, which is equal to 10^−8 s for the tryptophan fluorescence of proteins.
The fluorescence spectra were recorded using a Varian Cary Eclipse spectrofluorometer (Palo Alto, CA, USA) in a 10 mM phosphate-buffered saline solution (pH = 7.4) at 24 °C. The spectra were measured with an excitation wavelength of 280 nm using a slit width of 10 nm for both the excitation and emission beams over a range of 300–450 nm. Spectrofluorometric BSA titrations were performed with increasing concentrations of acridine derivatives.

Bj-5ta [2] = test: MTT assay, BJ-5ta non-cancerous fibroblasts; assay type: cell-based, human; details: non-cancerous dermal fibroblasts, 48 h incubation
How it was run: (§1)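 Human MCF-10A breast epithelial and BJ-5ta dermal fibroblast cells seeded 24 h, then exposed to compounds at 5, 10, 20 and 50 µmol/L for 48 h at 37 °C. MTT with SDS solubilization, absorbance 540 nm. IC50 from nonlinear regression, ≥3 independent repeats.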

PATU [3] = test: MTT assay, PATU 8902; assay type: cell-based, human; details: pancreas adenocarcinoma, 48 h incubation
How it was run: (§2)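 Growth media: RPMI 1640 for HeLa and HCT116, DMEM for A2058 and PATU 8902, each with 10% FBS. After 48 h treatment at 5, 10, 20 or 50 µmol/L, viability was measured by MTT reduction at 540 nm.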

HeLa [4] = test: MTT assay, HeLa; assay type: cell-based, human; details: cervical adenocarcinoma, 48 h incubation
How it was run: as §2

HCT116 [5] = test: MTT assay, HCT116; assay type: cell-based, human; details: colorectal adenocarcinoma, 48 h incubation
How it was run: as §2

A2058 [6] = test: MTT assay, A2058; assay type: cell-based; details: human melanoma, 48 h incubation
How it was run: as §2

Hep G2 [7] = test: MTT assay, Hep G2; assay type: cell-based, human; details: hepatocellular carcinoma, 48 h incubation
How it was run: (§3)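 MTT viability after 48 h exposure to compounds at final 5–50 µmol/L; formazan in 10% SDS read at 540 nm, IC50 fitted by nonlinear regression from at least three independent experiments.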

A549 [8] = test: MTT assay, A549; assay type: cell-based, human; details: lung adenocarcinoma, 48 h incubation
How it was run: as §3

A549 [9] = details: cisplatin reference, 48 h; cited from earlier work
HCT116 [10] = details: cisplatin reference, 48 h; cited from earlier work
Hep G2 [11] = details: cisplatin reference, 48 h; cited from earlier work
Bj-5ta [12] = details: cisplatin reference, 48 h; cited from earlier work
PATU [13] = details: cisplatin reference, 48 h; cited from earlier work
MCF-10A [14] = details: cisplatin reference, 48 h; cited from earlier work
A2058 [15] = details: cisplatin reference, 48 h; cited from earlier work
HeLa [16] = details: cisplatin reference, 48 h; cited from earlier work
MCF-10A [17] = test: MTT assay, MCF-10A non-cancerous cells; assay type: cell-based, human; details: non-cancerous epithelial breast cells, 48 h incubation
How it was run: as §1

A2780 = test: MTT assay, A2780; assay type: cell-based, human; details: ovarian adenocarcinoma, 48 h incubation
How it was run: as §3

Row | Stern–Volmer quenching constant Ksv [1] | bimolecular quenching rate constant kq [1] | IC50 (HeLa [4]) [µM] | IC50 (HCT116 [5]) [µM] | IC50 (A549 [8]) [µM] | Structure (SMILES) | IC50 (Bj-5ta [2]) [µM] | IC50 (PATU [3]) [µM] | IC50 (A2058 [6]) [µM] | IC50 (Hep G2 [7]) [µM] | other results
1 | 10.58 × 10^4 [M^−1] | 10.58 × 10^12 [M^−1·s^−1] | 14.3 ± 6.4 | > 50 | 14.6 ± 3.3 | COc1cc(/C=C2\SC(=O)N(Cc3cccc4cc5ccccc5nc34)C2=O)ccc1OCC(=O)Nc1cc(OC)c(OC)c(OC)c1.Cl [13c·HCl, 2-(4-{[(5Z)-3-[(Acridin-4-yl)methyl]-2,4-dioxo-1,3-thiazolidin-5-ylidene]methyl}-2-methoxyphenoxy)-N-(3,4,5-trimethoxyphenyl)acetamide hydrochloride] | > 50 | > 50 | > 50 | 23.4 ± 3.4 | 
2 |  |  |  |  |  | N.N.[Cl][Pt][Cl] [Cisplatin] |  |  |  |  | IC50 (A549 [9]): 17.3 ± 2.2 µM; IC50 (HCT116 [10]): 14.5 ± 2.5 µM; IC50 (Hep G2 [11]): 14 ± 2.8 µM; IC50 (Bj-5ta [12]): 31 ± 0.7 µM; IC50 (PATU [13]): 20.7 ± 3.1 µM; IC50 (MCF-10A [14]): 25.9 ± 2.1 µM; IC50 (A2058 [15]): 18.8 ± 5.5 µM; IC50 (HeLa [16]): 30.4 ± 1.4 µM
3 | 10.74 × 10^4 [M^−1] | 10.74 × 10^12 [M^−1·s^−1] | 20.5 ± 3.8 | 8.9 ± 3.1 | 34.3 ± 5.7 | Cl.Cl.O=C(COc1ccc(/C=C2\SC(=O)N(Cc3c4ccccc4nc4ccccc34)C2=O)cc1)Nc1ccccc1C(F)(F)F [Compound 7e·2HCl, 2-(4-{[(5Z)-3-[(Acridin-9-yl)methyl]-2,4-dioxo-1,3-thiazolidin-5-ylidene]methyl}phenoxy)-N-[2-(trifluoromethyl)phenyl]acetamide dihydrochloride] | > 50 | 11 ± 2.2 | > 50 | > 50 | IC50 (MCF-10A [17]): > 50 µM; IC50 (A2780): > 50 µM
4 | 9.59 × 10^4 [M^−1] | 9.59 × 10^12 [M^−1·s^−1] |  | 4.9 ± 2.9 |  | COc1cc(/C=C2\SC(=O)N(Cc3cccc4cc5ccccc5nc34)C2=O)ccc1OCC(=O)Nc1ccc([N+](=O)[O-])cc1 [Compound 13d, 2-(4-{[(5Z)-3-[(Acridin-4-yl)methyl]-2,4-dioxo-1,3-thiazolidin-5-ylidene]methyl}-2-methoxyphenoxy)-N-(4-nitrophenyl)acetamide] |  |  |  |  | melting point: 254 to 257 °C (dec.); IC50 (Bj-5ta [2]; Homo sapiens, Fibroblast, 48 h): 38.5 ± 4.5 µM; IC50 (PATU [3]; Homo sapiens, PaTu 8902, 48 h): > 50 µM; IC50 (MCF-10A [17]; Homo sapiens, MCF-10A, 48 h): > 50 µM; IC50 (HeLa [4]; Homo sapiens, HeLa, 48 h): 36.2 ± 5.23 µM; IC50 (A2780; Homo sapiens, A2780, 48 h): > 50 µM; IC50 (A2058 [6]; Homo sapiens, A2058, 48 h): 38.1 ± 1.65 µM; IC50 (Hep G2 [7]; Homo sapiens, HepG2, 48 h): > 50 µM; IC50 (A549 [8]; Homo sapiens, A549, 48 h): 46.9 ± 3.1 µM
